Here are results for three compounds from US20250228757A1, “SUNSCREEN COMPOUNDS AND FORMULATIONS” (Oregon State University, priority 2024, published 2025).

“Also recorded” adds a separate entry of the source. Read-outs that look alike come from different tables or passages of the source.

In data set [1] the test system is human primary epidermal keratinocytes (HPEKs). The data set can be described thus: UV protection CyQuant cell count assay (dose-response and time kinetics). It counts as cell-based. The settings on record: 10 mJ/cm^2 UVB. The method, then:
(§1) Immortalized keratinocyte HaCaT cells (ATCC, Manassas, VA, USA) were cultured in DMEM supplemented with 5% fetal bovine serum. Human primary epidermal keratinocytes (HPEKs) (ATCC) were cultured in EpiLife medium (ThermoFisher Scientific) supplemented with Human Keratinocyte Growth Supplement (ThermoFisher Scientific). HPEKs were maintained below ten passages. Cell lines were incubated in a humidified environment at 37° C. with 5% CO2.
For UV protection dose-response assays, HaCaT cells were seeded 5000 cells/well into clear 96-well plates (Corning). After 24 h, cells were treated with MBITC or MBA at 0, 3.125, 6.25, 12.5, 25, or 50 µM and incubated for 12 h. Cells were washed in PBS and irradiated with 10 mJ/cm^2 UVB using a UV Transilluminator 2000. After irradiation, fresh media was added, cells incubated for 36 h, and viability was determined by MTS assay as before. HPEKs were seeded 5000 cells/well into black, opaque bottom 96-well plates (Greiner Bio-One, Monroe, NC, USA) and incubated for 48 h. […] The dose of UVB was quantified using an IL1400A NIST Traceable Photometer (International Light, Peabody, MA, USA). […] After 36 h, CYQUANT® (ThermoFisher Scientific) assays were performed per the manufacturer's instructions, and fluorescent signal read using a Synergy4® (Biotek, Winooski, VT) plate reader. […]

Data set [2] deals with HaCaT cells. The data set can be described thus: Dose-response MTS viability assay without UVB. It counts as cell-based, human. The note with it: 48 h, 3.125-50 μM, absence of UVB irradiation. The method, then:
as §1
(§2) For viability studies, HaCaT cells were seeded 5000 cells/well in clear 96-well plates (Corning, Corning, NY, USA). After 24 h, cells were treated with MBITC or MBA at 0, 3.125, 6.25, 12.5, 25, or 50 μM and incubated with the compounds for 48 h. Viability was then determined by MTS assay using CellTiter 96® AQueous One Solution Cell Proliferation Assay (Promega Corporation, Madison, WI, USA). Absorption was measured using Cytation® 5.0 Imaging Reader (Agilent, Santa Clara, CA, USA). HPEKs were seeded 5000 cells/well into white, opaque bottom 96-well plates (Greiner Bio-One) and incubated for 48 h. HPEKs were then treated with ethanol vehicle control or a 5-point half-log serial dilution of MBA starting at 50 μM. After 48 h, CellTiter-Glo® (Promega Corporation, Madison, WI) viability assays were performed per the manufacturer's instructions, and luminescence was read using a Synergy4 (Biotek, Winooski, VT) plate reader.

The test system of data set [3] is p-γH2A.X in HPEKs. The data set can be described thus: Immunoblotting for p-γH2A.X after UVB. The settings on record: 5 mJ/cm^2 UVB; for p-γH2A.X reduction: 1 μM (lowest tested dose); for p-γH2A.X staining: 25 and 50 μM (higher concentrations). Format: cell-based, human. The method, then: HPEKs were cultured to 80% confluence in 6-well plates and treated with ethanol vehicle control or MBA. Cells were then irradiated in the same manner as immunocytochemistry samples. After 36 h, cells were harvested by scraping into cold PBS, centrifuged, pellet resuspended in denaturing SDS lysis buffer, boiled, and sonicated as described previously (Carpenter et al., Mol Carcinog 2019, 58:1680-1690). Samples were normalized to protein content as determined by BCA Assay (ThermoFisher Scientific). SDS-PAGE was then performed using 10% gels and transferred to a 0.45 μm nitrocellulose membrane (GE Healthcare, Chicago, IL, USA). Blots were blocked for 1 h in 5% nonfat dry milk in TBS-T and incubated with α-p-γH2A.X antibody (1:1000, Cell Signaling Technology, Danvers, MA, USA) or Actin (1:2000, Bethyl Laboratories, Inc., Montgomery, TX, USA) in 5% bovine serum albumin in TBS-T overnight at 4° C. The next day, blots were incubated with HRP-conjugated Goat anti-rabbit IgG or Goat anti-mouse IgG secondary antibodies (1:2000, Calbiochem, San Diego, CA, USA) for 1 h. The immunoblots were developed using chemiluminescent reagents (GE Healthcare) and imaged with a MyECL imager (ThermoFisher Scientific).

The nature of data set [4]: UVB absorption assay. It counts as physicochemical. The settings on record: for UVB absorption: time needed to reach a 5 mJ/cm^2 dose: in ethanol, 1, 10, 25, 50 μM. The method, then: MBITC or MBA was diluted in ethanol at 0, 1, 10, 25, and 50 μM, added to separate wells of a 24-well plate (Corning, Corning, NY, USA), and irradiated with UVB light using a UV Transilluminator 2000 (Bio-Rad, Hercules, CA, USA) to reach 5 mJ/cm^2 or 10 mJ/cm^2. A Daavlin X-96 irradiance meter (Daavlin, Bryan, OH, USA) measured energy transmittance through the dish. Each well was separately irradiated, and the time was measured to reach the specified energy density.

Data set [5] has as its system HaCaT cells. The experiment in a line: UV protection dose-response MTS assay. It counts as cell-based, human. How it is done:
as §1
For UV protection dose-response assays, HaCaT cells were seeded 5000 cells/well into clear 96-well plates (Corning). After 24 h, cells were treated with MBITC or MBA at 0, 3.125, 6.25, 12.5, 25, or 50 µM and incubated for 12 h. Cells were washed in PBS and irradiated with 10 mJ/cm^2 UVB using a UV Transilluminator 2000. After irradiation, fresh media was added, cells incubated for 36 h, and viability was determined by MTS assay as before. HPEKs were seeded 5000 cells/well into black, opaque bottom 96-well plates (Greiner Bio-One, Monroe, NC, USA) and incubated for 48 h. Afterward, cells were treated with vehicle control or a 10-point half-log serial dilution of MBITC or MBA starting at 50 μM and incubated for 12 h. Before irradiation, the conditioned cell culture medium was re-moved from each well, retained, and PBS containing the same dose of EtOH or the compounds was added to the wells. Cells were irradiated with a 10 mJ/cm^2 dose using UVB TL 20W/12 RS M3 lights (Philips, Amsterdam, Netherlands). The dose of UVB was quantified using an IL1400A NIST Traceable Photometer (International Light, Peabody, MA, USA). Following irradiation, the PBS was aspirated from the wells, and conditioned media was added. After 36 h, CYQUANT® (ThermoFisher Scientific) assays were performed per the manufacturer's instructions, and fluorescent signal read using a Synergy4® (Biotek, Winooski, VT) plate reader. Cell counts were extrapolated from a standard curve of fluorescent signal activity vs. HPEK cell counts. Time kinetics involved the same compound and UVB treatment scheme as before, but CYQUANT® assays were performed at 24, 48, 72, or 96 h post-UVB irradiation.
On the technique in general: Formazan colour is commonly taken as a measure of viable cells.

The nature of data set [6]: UV spectra. It counts as physicochemical. The note with it: UV spectrum.
Data set [7] can be described thus: Solubility. Format: physicochemical.
For data set [8], the system named is cyclobutane pyrimidine dimers (CPDs) in HPEKs. The experiment in a line: Immunocytochemistry for cyclobutane pyrimidine dimers after UVB. The note with it: 12 h treatment, 5 mJ/cm^2 UVB. Format: cell-based, human. How it is done: HPEKs were cultured to 80% confluence in 6-well plates containing gelatin-coated coverslips and treated with ethanol vehicle control or MBA. After 12 h, the conditioned cell culture medium was removed, retained, and PBS containing EtOH or MBA was added to each well. Plates were then irradiated with 5 mJ/cm^2 UVB, PBS removed, conditioned media re-added, and incubated for 24 h. Cells were then fixed in 75% methanol/25% acetic acid, washed with 70% EtOH, and DNA denatured in 70 mM NaOH (in 70% EtOH). Wells were then washed 3 times with PBS and denaturation quenched with 100 mM Tris —HCl (in 70% EtOH). Cells were then blocked with 10% normal goat serum (NGS) in PBS-T and incubated overnight at 4° C. with α-thymine dimer primary antibody (1:1000, Kamiya Bio-medical, Matsumoto, Nagano, Japan) in NGS blocking buffer. […] Corrected total cellular fluorescence (CTCF) was quantified using the ImageJ software package as described previously, except only nuclear CTCF for CPD staining was quantified and nuclei were selected for ROIs using manual thresholding for each field (Carpenter et al., J Invest Dermatol 2022, 142:1903-1911). For all quantifications, cells on the edges of each field were excluded.

Data set [9] concerns human primary epidermal keratinocytes (HPEKs). The data set can be described thus: Dose-response CellTiter-Glo viability assay without UVB. It counts as cell-based. The settings on record: 48 h, up to 50 μM, absence of UVB. How it is done: as §1, §2
(Cellular ATP, detected with luciferase, serves as a proxy for viable cell number.)

The subject of data set [10] is human skin equivalents. The settings on record: Carpenter et al. 2018; cited from earlier work.
Data set [11] relates to HPEKs. The settings on record: previous study, absence of UVB; cited from earlier work.
Setting [12] is: HaCaT, 12 h treatment, 10 mJ/cm^2 UVB, MTS after 36 h.

`CCCCCCCCCCCCCC/C=C\CCCC(=O)NCc1cccc(OC)c1` [MBA, (Z)—N-(3-methoxybenzyl)eicos-5-enamide]: the “protective effect, time kinetics” value in data set [1] (incubation up to four days) was “did not reveal a protective effect”. In addition, in data set [1] (12 h treatment, CyQuant), the “prevention of UV-induced loss in proliferation (dose-response)” value is given as “had the same effect as in HaCaT cells”. The “cytotoxicity (viability, MTS)” value in data set [2] was “little to no effect”. Moreover, in data set [3], the p-γH2A.X reduction entry is on record as “trend of reduced p-γH2A.X” and the p-γH2A.X staining entry is “lack of elevated p-γH2A.X”. Besides, the “UVB absorption: time needed to reach a 5 mJ/cm^2 dose” value in [4] is listed as “only showed similar activity at a single concentration of 25 μM”. For the same compound, the “cytotoxic effects in the presence of UVB light” value in data set [5] (setting [12]) is on record as “did not exhibit the same cytotoxic effects as the parental compound”. Besides, the λmax in data set [6] is 273 nm. In addition, the solubility in ethanol entry in [7] was “ethanol soluble”. Further, in data set [8], the “intensity of the CPD staining (CTCF)” value is “substantially decreased” and the “total number of CPD+ cells vs vehicle control” value was “small but significant difference”. Also, the “cytotoxicity (viability, CellTiter-Glo)” value in data set [9] was “not cytotoxic at the tested doses”.

As to `COc1cccc(CN=C=S)c1` [MBITC, 3-methoxybenzyl isothiocyanate], in [3], the p-γH2A.X reduction result was “less reduction; also recorded: trend of reduced p-γH2A.X” and the p-γH2A.X staining result is reported as “trend of increased p-γH2A.X staining compared to MBA”. In addition, the “UVB absorption: time needed to reach a 5 mJ/cm^2 dose” value in [4] is “sufficient to increase the time needed to reach a 5 mJ/cm^2 dose at every tested concentration except 50 μM, where the time significantly decreased”. The “UVB absorption capacity, compared” value in [4] (time needed to reach 5 or 10 mJ/cm^2) was “more UVB absorption capacity than MBA”. Further, the “cytotoxic effects in the presence of UVB light” value in data set [5] was “displayed cytotoxic effects in the presence of UVB light”. The “protection from UVB-induced loss in proliferation” value in data set [5] (setting [12]) was “did not reverse the loss of proliferation”. Besides, in data set [6], the λmax stood at 273 nm. In addition, the “UVB-induced DNA damage, proliferation, and matrix-metalloproteinase expression” value in data set [10] is given as “reduce”. Further, the “cytotoxic effects in HPEKs” value in data set [11] was “exhibited cytotoxic effects”.

For the compound `COc1cccc(CCC#N)c1` [MPACN, 3-methoxybenzyl acetonitrile], the “UVB-induced DNA damage, proliferation, and matrix-metalloproteinase expression” value in [10] was “reduce”.
